Measurements taken from patent US20190055576A1, “USE OF HERBICIDE-TOLERANT PROTEIN” (BEIJING DABEINONG TECHNOLOGY GROUP CO., LTD., priority 2016, published 2019).

Test system: transgenic Arabidopsis thaliana T1 plants (ALT-1-01, ALT-2-01, ALT-3-01; cytoplasmic or chloroplastic)
Experiment: Herbicide tolerance of transgenic Arabidopsis thaliana T1 plants expressing thifensulfuron hydrolase, resistance classes counted after spraying
Format: in vivo
Details: for Highly resistant (number of plants with growth status consistent with blank solvent group) / Moderately resistant (number of plants with bolting height less than 1/2 of blank solvent group) / Non-resistant (number of plants dead) / Poorly resistant (number of plants still not capable of bolting): 1-fold field concentration (g ai/ha: Sulfometuron-methyl 30, iodosulfuron-methyl 10, mesosulfuron 14, oxasulfuron 60), 14 days after spraying
Text: T1 transformants were initially selected from the background of untransformed seeds using a glufosinate selection scheme. About 40000 T1 seeds were screened, and 380 T1 positive transformants (PAT gene) were identified with a transformation efficiency of about 0.95%. The plants that were transformed with the recombinant expression vector DBN100632 were Arabidopsis thaliana plants having an ALT-1-01 nucleotide sequence located in the cytoplasm introduced (At cytoplasmic ALT-1-01), and the plants that were transformed with the recombinant expression vector DBN100631 were Arabidopsis thaliana plants having an ALT-1-01 nucleotide sequence located in the chloroplast introduced (At chloroplastic ALT-1-01); the plants that were transformed with the recombinant expression vector DBN100634 were Arabidopsis thaliana plants having an ALT-2-01 nucleotide sequence located in the cytoplasm introduced (At cytoplasmic ALT-2-01), and the plants that were transformed with the recombinant expression vector DBN100633 were Arabidopsis thaliana plants having an ALT-2-01 nucleotide sequence located in the chloroplast introduced (At chloroplastic ALT-2-01); and the plants that were transformed with the recombinant expression vector DBN100636 were Arabidopsis thaliana plants having an ALT-3-01 nucleotide sequence located in the cytoplasm introduced (At cytoplasmic ALT-3-01), and the plants that were transformed with the recombinant expression vector DBN100635 were Arabidopsis thaliana plants having an ALT-3-01 nucleotide sequence located in the chloroplast introduced (At chloroplastic ALT-3-01). The herbicide tolerance effects of At cytoplasmic ALT-1-01 T1 plants, At chloroplastic ALT-1-01 T1 plants, At cytoplasmic ALT-2-01 T1 plants, At chloroplastic ALT-2-01 T1 plants, At cytoplasmic ALT-3-01 T1 plants, At chloroplastic ALT-3-01 T1 plants and wild-type Arabidopsis thaliana plants on Sulfometuron-methyl were detected (14 days after sowing), respectively.
At cytoplasmic ALT-1-01 T1 plants, At chloroplastic ALT-1-01 T1 plants, At cytoplasmic ALT-2-01 T1 plants, At chloroplastic ALT-2-01 T1 plants, At cytoplasmic ALT-3-01 T1 plants, At chloroplastic ALT-3-01 T1 plants and wild-type Arabidopsis thaliana plants were sprayed with Sulfometuron-methyl (30 g ai/ha, 1-fold field concentration) and a blank solvent (water), respectively. Plants were counted for the resistance situations 14 days after spraying: those having a consistent growth status with the blank solvent (water) group after 14 days were classified as highly resistant plants, those having a bolting height less than ½ of that of the blank solvent (water) group after 14 days were classified as moderately resistant plants, those still not capable of bolting after 14 days were classified as poorly resistant plants, and those dead after 14 days were classified as non-resistant plants. Since each Arabidopsis thaliana T1 plant was an independent transformation event, a significant difference in individual T1 responses could be expected at a given dose.
At cytoplasmic ALT-1-01 T1 plants, At chloroplastic ALT-1-01 T1 plants, At cytoplasmic ALT-2-01 T1 plants, At chloroplastic ALT-2-01 T1 plants, At cytoplasmic ALT-3-01 T1 plants, At chloroplastic ALT-3-01 T1 plants and wild-type Arabidopsis thaliana plants in Example 4 were sprayed with iodosulfuron-methyl (10 g ai/ha, 1-fold field concentration), mesosulfuron (14 g ai/ha, 1-fold field concentration) and oxasulfuron (60 g ai/ha, 1-fold field concentration), respectively, in addition to Sulfometuron-methyl (30 g ai/ha, 1-fold field concentration) and the blank solvent (water). […]

[1] = At chloroplastic ALT-1-01 T1 plants
[2] = At chloroplastic ALT-2-01 T1 plants
[3] = At chloroplastic ALT-3-01 T1 plants
[4] = At cytoplasmic ALT-1-01 T1 plants
[5] = At cytoplasmic ALT-2-01 T1 plants
[6] = At cytoplasmic ALT-3-01 T1 plants

In the case of `COC(=O)c1ccccc1S(=O)(=O)NC(=O)Nc1nc(C)cc(C)n1` [Sulfometuron-methyl, 2-(4,6-dimethylpyrimidine-2-amino-formamido-sulfonyl) methyl benzoate], the “Highly resistant (number of plants with growth status consistent with blank solvent group)” value (from here on “Highly resistant”) [1] is reported as 27, the “Moderately resistant (number of plants with bolting height less than 1/2 of blank solvent group)” value (“Moderately resistant” below) [1] is reported as 0 and the “Non-resistant (number of plants dead)” value [1] is reported as 1. For the same compound, the “Poorly resistant (number of plants still not capable of bolting)” value [1] was 0, the “Highly resistant” value [2] was 29 and the “Moderately resistant” value [2] was 0. The “Non-resistant (number of plants dead)” value [2] was 0, the “Poorly resistant (number of plants still not capable of bolting)” value [2] was 1 and the “Highly resistant” value [3] was 27. The “Moderately resistant” value [3] was 0, the “Non-resistant (number of plants dead)” value [3] was 1 and the “Poorly resistant (number of plants still not capable of bolting)” value [3] was 0. The “Highly resistant” value [4] was 23, the “Moderately resistant” value [4] was 2 and the “Non-resistant (number of plants dead)” value [4] was 1. For the same compound, the “Poorly resistant (number of plants still not capable of bolting)” value [4] was 1, the “Highly resistant” value [5] was 24 and the “Moderately resistant” value [5] was 0. The “Non-resistant (number of plants dead)” value [5] was 3, the “Poorly resistant (number of plants still not capable of bolting)” value [5] was 2 and the “Highly resistant” value [6] was 22. For the same compound, the “Moderately resistant” value [6] was 1, the “Non-resistant (number of plants dead)” value [6] was 3 and the “Poorly resistant (number of plants still not capable of bolting)” value [6] was 1. For the same compound, the “herbicide tolerance conferred by the thifensulfuron hydrolase (ALT-1, ALT-2 and ALT-3)” value (transgenic Arabidopsis thaliana T1 plants, 30 g ai/ha) was “conferred Sulfometuron-methyl herbicide tolerance to individual Arabidopsis thaliana plants”.
